How the values were obtained:
CYP26A1 = CYP26A1 (Homo sapiens (Human), UniProt O43174); assay: Cell-based inhibitor assay, [H]-RA metabolism in CYP26A1 stably transfected HeLa cells; conditions: for IC50: CYP26A1 transfected HeLa cells, 3 hours at 37° C., inhibition of all trans-RA metabolism, read-out: IC50 26A1; for inhibition of CYP26A1-mediated RA metabolism compared with ketoconazole (in words): see IC50 values in Table 2
Experimental: (§1) CYP26A1 or CYP26B1 stably transfected HeLa cells were maintained in Minimum Essential Medium (MEM) containing 10% fetal bovine serum (FBS) and 100 μg/mL hygromycin. Exponentially growing cells were harvested by incubation in trypsin. Cells were then collected and re-plated in 48-well culture plates at 5×10^5 cells in 0.2 mL of culture medium containing 0.05 μCi [H]-RA in the presence or absence of increasing concentrations of a test compound. The test compounds were diluted in dimethyl sulfoxide (DMSO) and then added in duplicate to wells at 0.01, 0.1, 1, 10 and 100 μM final concentration. […] Cells were incubated for 3 hours at 37° C. Retinoids were then extracted using the procedure of Bligh, et al., (1959), Canadian Journal of Biochemistry 37, 911-917, which was modified by using dichloromethane instead of chloroform. Each sample's water soluble radioactivity level was quantified using a β-scintillation counter (using Ecolume scintillation fluid, available from MP Biomedicals of Solon, Ohio, USA).

[1] = tested on: RA sensitive reporter construct pCYP26A1-luc in MCF-7 cells; assay: Retinoid activity assay, RA sensitive pCYP26A1-luc reporter in MCF-7 cells; assay type: cell-based; conditions: 24 hours, firefly relative to Renilla luciferase
Text: This retinoid activity assay measures the ability of test compounds to induce expression of a transiently transfected RA sensitive reporter construct. In this assay, MCF-7 cells are transfected with a construct comprising an upstream promoter of the CYP26A1 gene containing 2 RA response elements driving expression of firefly luciferase (pCYP26A1-luc). Since CYP26A1 is highly inducible by RA in these cells, this construct serves as a sensitive reporter of retinoid-like transcriptional activity.
MCF-7 cells were maintained in RPMI-1640 medium containing 10% FBS. Exponentially growing cells were harvested by incubation in trypsin. Cells were then collected and plated in 24-well plates at 50,000 cells/well. Once cells reached 80-90% confluence (e.g., the next day), cells were transfected with two plasmids. The first plasmid was CYP26A1-luc construct (375 ng). The second plasmid was a control plasmid comprising the Renilla luciferase gene driven by constitutive thymidine kinase promoter (pRL-tk) (25 ng). Transfection was performed using FuGene 6 transfection reagent (Promega) with a 1:3 ratio of DNA:FuGene. 24 hours after transfection, cells were treated with test compounds diluted in DMSO in triplicate at 0.1, 1 and 10 μM final concentrations. As a positive control for reporter activation, cells were also treated with RA diluted in DMSO at the same concentrations listed above. DMSO treatment alone served as a negative control. After 24 hours of treatment, cells were harvested in passive lysis buffer (Promega) and luciferase activity in cell lysates were read using a luminometer. Data are expressed as the activity of firefly luciferase relative to Renilla luciferase (see Table 3). For CYP26A1 inhibitor compounds, no activation of the reporter was detected, while the related retinoid-like compound induces luciferase expression.

CYP26B1 = CYP26B1 (Homo sapiens (Human), UniProt Q9NR63); assay: Cell-based inhibitor assay, [H]-RA metabolism in CYP26B1 stably transfected HeLa cells; conditions: for IC50: CYP26B1 transfected HeLa cells, 3 hours at 37° C., inhibition of all trans-RA metabolism, read-out: IC50 26B1
Experimental: as §1

[2] = tested on: CYP26A1 expression in MCF-7 cells; assay: Enhancement of RA activity assay, qPCR of CYP26A1 in MCF-7 cells treated with RA plus compound; assay type: cell-based; conditions: 1 μM RA + 1 μM compound, 24, 48, 72 hours
Experimental: An RA activity assay was used to measure the ability of compounds that inhibit CYP26A1 to enhance activity of RA, for example, by limiting its catabolism. This assay measured expression of endogenous RA target genes in MCF-7 cells that have been treated with RA and a compound of interest. A compound that inhibits CYP26 activity will have the effect of prolonging the induction of RA target genes in response to RA.
Exponentially growing MCF-7 cells were treated with trypsin, collected and plated into 6-well culture dishes at 300,000 cells per well. […] RA was also added at a final concentration of 1 μM. RNA was harvested using Trizol reagent after 24, 48, and 72 hours of treatment. cDNA was synthesized from 2 μg of total RNA using Superscript III cDNA synthesis kit with random priming (available from Life Technologies, Burlington, ON, Canada). Analysis of expression of the RA inducible CYP26A1 gene was quantified by qPCR normalized against expression of PMM2 with Sybr Select Master Mix (Life Technologies) and gene specific primers in a two-step thermal cycling reaction. Data is provided for a CYP26A1 selective inhibitor, which enhances the induction of CYP26A1.

[3] = tested on: CYP26A1 expression in MCF-7 cells; assay: qPCR of endogenous RA target gene CYP26A1 in MCF-7 cells, compound alone; assay type: cell-based; conditions: 1 μM
Experimental: Additionally, for some compounds of particular interest, a second assay is performed to measure expression of endogenous RA target genes after treatment with test compounds in MCF-7 cells. Exponentially growing MCF-7 cells were treated with trypsin, collected and plated into 6-well culture dishes at 300,000 cells per well. Once cells reached confluency, they were treated with test compounds diluted in DMSO to a final concentration of 1 μM. As a positive control, cells were also treated with RA at 1 μM final concentration. After 24 hours of treatment, RNA was harvested using TRI reagent (available from Sigma-Aldrich, Oakville, Canada). cDNA was synthesized from 2 μg of total RNA using Superscript III cDNA synthesis kit with random priming (kit available from Life Technologies, Burlington, ON, Canada). Analysis of expression of a RA inducible CYP26A1 gene was quantified by qPCR normalized against expression of PMM2 with Sybr Select Master Mix (Life Technologies) and gene specific primers in a two-step thermal cycling reaction. Data is shown in Table 2 for select compounds of interest. […] See FIGS. 1 and 2 for graphs of retinoid activity.

Chain of CYP26A1 (O43174 whole entry, species assumed): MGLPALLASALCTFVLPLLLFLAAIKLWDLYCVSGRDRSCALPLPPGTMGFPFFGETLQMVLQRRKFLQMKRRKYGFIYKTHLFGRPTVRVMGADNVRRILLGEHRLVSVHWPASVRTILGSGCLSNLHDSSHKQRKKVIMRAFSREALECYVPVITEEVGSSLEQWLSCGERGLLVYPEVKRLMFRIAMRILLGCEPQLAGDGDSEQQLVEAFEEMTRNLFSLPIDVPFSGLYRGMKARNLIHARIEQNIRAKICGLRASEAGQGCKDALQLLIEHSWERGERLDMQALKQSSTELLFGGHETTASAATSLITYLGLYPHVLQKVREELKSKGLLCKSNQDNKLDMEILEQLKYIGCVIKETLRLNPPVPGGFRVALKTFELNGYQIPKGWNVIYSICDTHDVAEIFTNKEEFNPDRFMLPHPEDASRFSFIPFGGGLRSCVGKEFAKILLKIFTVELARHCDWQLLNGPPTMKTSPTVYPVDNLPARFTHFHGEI
Chain of CYP26B1 (Q9NR63 whole entry, species assumed): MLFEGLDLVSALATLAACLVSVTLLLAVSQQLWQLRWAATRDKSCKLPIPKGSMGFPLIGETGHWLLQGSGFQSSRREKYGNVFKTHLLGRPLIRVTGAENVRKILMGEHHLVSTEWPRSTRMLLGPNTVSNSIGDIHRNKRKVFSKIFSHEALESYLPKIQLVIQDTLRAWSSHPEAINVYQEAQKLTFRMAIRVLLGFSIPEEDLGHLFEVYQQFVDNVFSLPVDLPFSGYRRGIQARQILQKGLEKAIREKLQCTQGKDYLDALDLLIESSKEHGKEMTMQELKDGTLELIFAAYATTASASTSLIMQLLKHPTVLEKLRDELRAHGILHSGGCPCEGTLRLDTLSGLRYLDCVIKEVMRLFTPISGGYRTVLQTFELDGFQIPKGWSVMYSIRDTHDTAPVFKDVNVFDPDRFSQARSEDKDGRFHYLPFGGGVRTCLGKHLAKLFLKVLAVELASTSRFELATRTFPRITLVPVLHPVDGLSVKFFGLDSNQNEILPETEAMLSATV

IC50 (CYP26A1)	IC50 (CYP26B1)	SMILES	Luciferase Activity RLU Avg ([1]; 0.1 μM)	Luciferase Activity RLU Avg ([1]; 1 μM)	Luciferase Activity RLU Avg ([1]; 10 μM)	inhibitory activity towards CYP26A1 (in words) (CYP26A1)	inhibition of CYP26A1-mediated RA metabolism compared with ketoconazole (in words) (CYP26A1)	inhibition of CYP26B1 enzyme (in words) (CYP26B1)	enhancement of RA signaling, induction of CYP26A1 expression (in words) [2]	enhancement of RA signaling, induction of CYP26A1 expression (in words) ([2]; listed as GGP12)	expression of RA target genes, compound given alone (in words) [3]	retinoid-like activity (in words) ([3]; FIG. 8)
3.17 µM	19.2 µM	CC1(C)CCC(C)(C)c2cc(NC(=O)c3ccc(CC(=O)O)cc3)ccc21 [Cmpd 08]	0.0025 RLU	0.0019 RLU	0.0028 RLU	–	–	–	–	–	–	–
0.83 µM	2.06 µM	Cc1cc2c(cc1C(=O)Nc1ccc(CC(=O)O)cc1)C(C)(C)CCC2(C)C [Cmpd 02]	0.004 RLU	0.0042 RLU	0.0066 RLU	selective inhibitory activity towards CYP26A1	comparable to or better than ketoconazole	None of the above compounds inhibited the CYP26B1 enzyme	–	–	–	–
> 100 µM	65.4 µM	CN(C(=O)c1ccc2c(c1)C(C)(C)CCC2(C)C)c1ccc(CC(=O)O)cc1 [Cmpd 03]	0.0041 RLU	0.0039 RLU	0.005 RLU	–	–	–	–	–	–	–

Continued, molecule first:

SMILES	IC50 (CYP26A1)	IC50 (CYP26B1)	Luciferase Activity RLU Avg ([1]; 0.1 μM)	Luciferase Activity RLU Avg ([1]; 1 μM)	Luciferase Activity RLU Avg ([1]; 10 μM)	inhibitory activity towards CYP26A1 (in words) (CYP26A1)	inhibition of CYP26A1-mediated RA metabolism compared with ketoconazole (in words) (CYP26A1)	inhibition of CYP26B1 enzyme (in words) (CYP26B1)	enhancement of RA signaling, induction of CYP26A1 expression (in words) [2]	enhancement of RA signaling, induction of CYP26A1 expression (in words) ([2]; listed as GGP12)	expression of RA target genes, compound given alone (in words) [3]	retinoid-like activity (in words) ([3]; FIG. 8)
CC1(C)CCC(C)(C)c2cc(S(=O)(=O)Nc3ccc(CC(=O)O)c(F)c3)ccc21 [Cmpd 09]	2.2 µM	14.2 µM	0.0018 RLU	0.0017 RLU	0.0012 RLU	–	–	–	–	–	–	–
Cc1cc2c(cc1S(=O)(=O)Nc1ccc(C(C)(C)C(=O)O)cc1)C(C)(C)CCC2(C)C [Cmpd 12]	0.1 µM	> 1000 µM	0.067 RLU	0.082 RLU	0.041 RLU	selective inhibitory activity towards CYP26A1	comparable to or better than ketoconazole	None of the above compounds inhibited the CYP26B1 enzyme	greatly enhance RA signaling	enhancement of RA signaling	–	–
CC1(C)CCC(C)(C)c2cc(S(=O)(=O)Nc3ccc(C(=O)O)cc3)ccc21 [Cmpd 15]	> 1000 µM	> 100 µM	0.129 RLU	0.212 RLU	0.816 RLU	does not exhibit any inhibitory activity	–	does not exhibit any inhibitory activity	–	–	induces expression of the RA target gene CYP26A1	does exhibit retinoid-like activity
CCC(CC)(C(=O)O)c1ccc(NS(=O)(=O)c2cc3c(cc2C)C(C)(C)CCC3(C)C)cc1 [Cmpd 18]	> 1000 µM	9.07 µM	0.0683 RLU	0.0597 RLU	0.05 RLU	–	–	–	–	–	–	–
Cc1cc2c(cc1C(=O)Nc1ccc(C(C)(C)C(=O)O)cc1)C(C)(C)CCC2(C)C [Cmpd 16]	1.77 µM	11.9 µM	0.166 RLU	0.183 RLU	0.155 RLU	selective inhibitory activity towards CYP26A1	comparable to or better than ketoconazole	None of the above compounds inhibited the CYP26B1 enzyme	–	–	–	–
CC(C)c1cc2c(cc1S(=O)(=O)Nc1ccc(CC(=O)O)cc1)C(C)(C)CCC2(C)C [Cmpd 11]	20 µM	> 1000 µM	0.064 RLU	0.062 RLU	0.044 RLU	–	–	–	–	–	–	–
